Reference: patent US5041557A, “Furan derivatives” (Laboratorios Vinas S.A., priority 1989, dated 1991)

Tests used:
[1] = test system: ethanol induced ulcers (gastric mucous membrane); test: Necrosing agent model: ethanol induced ulcers in the rat; type: in vivo; settings: for mm lesion (lesion index, mm of ulcer) / % inhibition (ulcer inhibition percentage versus control): ethanol, LV-208 100 mg/kg, Rn equimolar dose; for mm lesion (lesion index, mm of ulcer): mean ± error of the mean, control 82.0 ± 10.1, LV-208: p < 0.001 versus control, p < 0.05 versus Rn (t test); for % inhibition (ulcer inhibition percentage versus control): versus control group; for protection against the ethanol induced aggression: rat, equimolar doses of LV-208 and Rn, result in words
Protocol: (§1) As stated above, the formula I compounds have shown a potent antiulcer activity. Thus the inhibition of histamine induced gastric secretion "in vivo" in rats, after intraperitoneal administration of these zinc-furan compounds at dose levels of 0.5; 1; 2 and 4 mg/kg reaches pH recovery levels, increasing with the dose, of 100%.
Particularly, the antiulcer activity of the compound LV-208 has been studied with evaluation of the secretion inhibiting and gastric mucous membrane protecting activity in the rat.
The activity of LV-208 was compared with the activity of Rn at equimolar doses using the necrosing agent model, ethanol in this case, described by Robert et al. (Gastroenterology, 77: 433, 1979), versus a control group administered excipient.
The following Table gives the lesion indexes (in mm of ulcer) of the three groups studied, as well as the ulcer inhibition percentages of the treated groups versus the control group (mean values±the error of the mean).

[2] = test system: histamine induced gastric acid secretion; test: "In vivo" histamine induced gastric acid secretion model in the rat; settings: Wistar rats, intraperitoneal
Protocol: as §1
This activity was measured in Wistar rats having a body weight of 240±20 g. An endovenous perfusion of a histamine solution stimulated the gastric secretion producing a drop in the intragastric pH. LV-208 was thereafter administered intraperitoneally and the increase in the gastric pH that this produced was evaluated. An ED50 of 0.8 mg/kg and recovery of 100% at a dose of 4 mg/kg was obtained by a dose-response curve.

Structure (SMILES)	mm lesion (lesion index, mm of ulcer) [1] [mm]	% inhibition (ulcer inhibition percentage versus control) [1] [%]	protection against the ethanol induced aggression [1]	recovery (gastric pH) ([2]; dose of 4 mg/kg) [%]	ED50 (increase in gastric pH, inhibition of histamine induced gastric acid secretion) ([2]; endovenous histamine perfusion, dose-response curve) [mg/kg]
CNC(=C[N+](=O)[O-])NCCSCc1ccc(CN(C)C)o1 [Rn, N,N-dimethyl-5-(2-(1-methylamino-2-nitrovinylamino)ethylthiomethyl)furfurylamine, reference compound]	40.6 ± 15.0	50.5	discreet protection		
CNC(=C[N+](=O)[O-])NCCSCc1ccc(CN(C)C)o1.[Cl][Zn][Cl] [LV-208]	4.8 ± 1.8	94.1	practically complete protection	100	0.8
